Publication PMC11995724, “Antibiotic target discovery by integrated phenotypic and activity-based profiling of electrophilic fragments” (Cell chemical biology, 2025)

Assay: in vitro
Settings: human, hek293t cells

## N#CC(=Cc1cc([N+](=O)[O-])ccc1Cl)C(N)=O [8-F21, 3-(2-chloro-5-nitrophenyl)-2-cyanoprop-2-enamide]
  viability at 48 h, 25 µM: 101%

## CC(Cl)C(=O)NC(C)C(=O)Nc1ccc(-n2cncn2)cc1 (stereo not drawn) [7-P07, 2-chloro-N-(1-{[4-(1H-1,2,4-triazol-1-yl)phenyl]carbamoyl}ethyl)propanamide]
  viability at 48 h, 25 µM: 98.6%

## CC(=O)NCCc1ccc(C(=O)CCl)s1 [10-P03, N-{2-[5-(2-chloroacetyl)thiophen-2-yl]ethyl}acetamide]
  viability at 48 h, 25 µM: 64.9%

## COc1ccc(C2=NN(C(=O)CCl)C(c3ccco3)C2)cc1 (stereo not drawn) [4-N19, 2-chloro-1-[5-(furan-2-yl)-3-(4-methoxyphenyl)-4,5-dihydro-1H-pyrazol-1-yl]ethan-1-one]
  viability at 48 h, 25 µM: 0.0172%

## O=C(CCl)N1CCC(OCc2ccccc2)CC1 [4-H19, 1-[4-(benzyloxy)piperidin-1-yl]-2-chloroethan-1-one]
  viability at 48 h, 25 µM: 0.757%

## Cc1ccc(S(=O)(=O)N(C)C)cc1NC(=O)C(C)Cl (stereo not drawn) [4-I06, 2-chloro-N-[5-(dimethylsulfamoyl)-2-methylphenyl]propanamide]
  viability at 48 h, 25 µM: 69.7%

## C=CC(=O)N1CCC(c2ccnn2C)CC1 [2-I15, 1-[4-(1-methyl-1H-pyrazol-5-yl)piperidin-1-yl]prop-2-en-1-one]
  viability at 48 h, 25 µM: 96.5%

## CC(Cl)C(=O)NCc1csc(-c2ccco2)n1 (stereo not drawn) [7-K05, 2-chloro-N-{[2-(furan-2-yl)-1,3-thiazol-4-yl]methyl}propanamide]
  viability at 48 h, 25 µM: 90.6%

## CC(Cl)C(=O)N1CC=C(C(F)(F)F)CC1 (stereo not drawn) [5-J19, 2-chloro-1-[4-(trifluoromethyl)-1,2,3,6-tetrahydropyridin-1-yl]propan-1-one]
  viability at 48 h, 25 µM: 118%

## O=C(CCl)c1c(-c2ccccc2)[nH]c2ccccc12 [10-E05, 2-chloro-1-(2-phenyl-1H-indol-3-yl)ethan-1-one]
  viability at 48 h, 25 µM: 14.1%

## CN(C1CCCCC1)S(=O)(=O)c1ccc(NC(=O)CCl)cc1 [5-E03, 2-chloro-N-{4-[cyclohexyl(methyl)sulfamoyl]phenyl}acetamide]
  viability at 48 h, 25 µM: -0.149%

## COCC1(NC(=O)C(C)Cl)CC=CCC1 (stereo not drawn) [6-J13, 2-chloro-N-[1-(methoxymethyl)cyclohex-3-en-1-yl]propanamide]
  viability at 48 h, 25 µM: 107%

## CC(C)NC(=O)C(C#N)=Cc1cccc(Cl)c1 [9-A13, 3-(3-chlorophenyl)-2-cyano-N-(propan-2-yl)prop-2-enamide]
  viability at 48 h, 25 µM: 99.7%

## C[C@H](NC(=O)CCl)C(=O)N1CCCCC1 [7-L14, 2-chloro-N-[(2S)-1-oxo-1-(piperidin-1-yl)propan-2-yl]acetamide]
  viability at 48 h, 25 µM: 70.1%

## Cc1cccc(C)c1NC(=O)C(C#N)=Cc1ccc(C(=O)O)cc1 [9-G17, 4-{2-cyano-2-[(2,6-dimethylphenyl)carbamoyl]eth-1-en-1-yl}benzoic acid]
  viability at 48 h, 25 µM: 111%

## Cc1ccc(C(=O)C(C)Cl)cc1C (stereo not drawn) [10-B20, 2-chloro-1-(3,4-dimethylphenyl)propan-1-one]
  viability at 48 h, 25 µM: 85%

## C=CC(=O)NC1CCCN(C2CCCCC2)C1=O (stereo not drawn) [3-O18, N-(1-cyclohexyl-2-oxopiperidin-3-yl)prop-2-enamide]
  viability at 48 h, 25 µM: 92.1%

## C=CC(=O)N1CCC(C(=O)N[C@]2(C(=O)OC)CC[C@@H](C)CC2)CC1 [3-E17, methyl (1r,4r)-4-methyl-1-[1-(prop-2-enoyl)piperidine-4-amido]cyclohexane-1-carboxylate]
  viability at 48 h, 25 µM: 57%

## CC(Cl)C(=O)Nc1cc(C(C)(C)C)nn1-c1ccccc1 (stereo not drawn) [4-H11, N-(3-tert-butyl-1-phenyl-1H-pyrazol-5-yl)-2-chloropropanamide]
  viability at 48 h, 25 µM: 93%

## COc1ccccc1NC(=O)c1ccc(NC(=O)CCl)cc1 [4-O17, 4-(2-chloroacetamido)-N-(2-methoxyphenyl)benzamide]
  viability at 48 h, 25 µM: -0.113%

## CC(C)NC(=O)C(C#N)=Cc1ccc(C(C)C)cc1 [9-I11, 2-cyano-N-(propan-2-yl)-3-[4-(propan-2-yl)phenyl]prop-2-enamide]
  viability at 48 h, 25 µM: 78.1%

## Cc1cccc(C)c1NC(=O)C(C#N)=Cc1ccc(OC(F)F)cc1 [8-A11, 2-cyano-3-[4-(difluoromethoxy)phenyl]-N-(2,6-dimethylphenyl)prop-2-enamide]
  viability at 48 h, 25 µM: 56.3%

## Cc1cc(C(C)(C)C)cc(C)c1CCNC(=O)CCl [4-A16, N-[2-(4-tert-butyl-2,6-dimethylphenyl)ethyl]-2-chloroacetamide]
  viability at 48 h, 25 µM: 0.58%

## C=CC(=O)Nc1ccccc1C1CC1(F)F (stereo not drawn) [1-M15, N-[2-(2,2-difluorocyclopropyl)phenyl]prop-2-enamide]
  viability at 48 h, 25 µM: 86.4%

## C=CC(=O)NCc1nonc1C [2-H07, N-[(4-methyl-1,2,5-oxadiazol-3-yl)methyl]prop-2-enamide]
  viability at 48 h, 25 µM: 57.6%

## CC(Cl)C(=O)NCCc1nnnn1-c1ccccc1 (stereo not drawn) [7-G17, 2-chloro-N-[2-(1-phenyl-1H-1,2,3,4-tetrazol-5-yl)ethyl]propanamide]
  viability at 48 h, 25 µM: 92.2%

## C=CC(=O)N1CCC(C(=O)NCC(O)c2cccc(Cl)c2)CC1 (stereo not drawn) [3-M06, N-[2-(3-chlorophenyl)-2-hydroxyethyl]-1-(prop-2-enoyl)piperidine-4-carboxamide]
  viability at 48 h, 25 µM: 98.1%

## CCCn1c(C)cc(C=C(C#N)C(=O)N2CCCC2)c1C [9-I03, 3-(2,5-dimethyl-1-propyl-1H-pyrrol-3-yl)-2-(pyrrolidine-1-carbonyl)prop-2-enenitrile]
  viability at 48 h, 25 µM: 134%

## CCN(CC)S(=O)(=O)c1cc(NC(=O)CCl)ccc1C [4-E09, 2-chloro-N-[3-(diethylsulfamoyl)-4-methylphenyl]acetamide]
  viability at 48 h, 25 µM: 0.544%

## COc1ccc(C=C(C#N)C(=O)Nc2ccc(C(=O)O)cc2)cc1C [9-G14, 4-[2-cyano-3-(4-methoxy-3-methylphenyl)prop-2-enamido]benzoic acid]
  viability at 48 h, 25 µM: 108%

## CC(c1cnn(C)c1)N(C)C(=O)CCl (stereo not drawn) [5-M04, 2-chloro-N-methyl-N-[1-(1-methyl-1H-pyrazol-4-yl)ethyl]acetamide]
  viability at 48 h, 25 µM: 1.55%

## C=CC(=O)NCCC(=O)N1CCCN(C(=O)c2ccccc2F)CC1 [2-D20, N-{3-[4-(2-fluorobenzoyl)-1,4-diazepan-1-yl]-3-oxopropyl}prop-2-enamide]
  viability at 48 h, 25 µM: 93.7%

## CC(Cl)C(=O)N(Cc1cccs1)[C@@H]1C=C[C@H](CO)C1 (stereo partly drawn) [7-E14, 2-chloro-N-[(1S,4R)-4-(hydroxymethyl)cyclopent-2-en-1-yl]-N-[(thiophen-2-yl)methyl]propanamide]
  viability at 48 h, 25 µM: 87.9%

## C=CC(=O)NCc1nc2c(s1)CCCC2 [1-G18, N-[(4,5,6,7-tetrahydro-1,3-benzothiazol-2-yl)methyl]prop-2-enamide]
  viability at 48 h, 25 µM: 95.8%

## CCn1cc(CN(C(=O)CCl)[C@H]2CC[C@H](C)CC2)cn1 [5-G16, 2-chloro-N-[(1-ethyl-1H-pyrazol-4-yl)methyl]-N-[(1r,4r)-4-methylcyclohexyl]acetamide]
  viability at 48 h, 25 µM: 0.893%

## C=CC(=O)N1CCC(n2cnc3ccccc3c2=O)C1 (stereo not drawn) [3-C03, 3-[1-(prop-2-enoyl)pyrrolidin-3-yl]-3,4-dihydroquinazolin-4-one]
  viability at 48 h, 25 µM: 63.6%

## Cc1ccc(C=C(C#N)C(=O)Nc2ccccc2C)cc1 [8-G16, 2-cyano-N-(2-methylphenyl)-3-(4-methylphenyl)prop-2-enamide]
  viability at 48 h, 25 µM: 118%

## COC(=O)[C@H]1[C@@H](C(=O)CCl)C1(C)C (racemic) [10-A11, rac-methyl (1R,3S)-3-(2-chloroacetyl)-2,2-dimethylcyclopropane-1-carboxylate]
  viability at 48 h, 25 µM: 74.8%

## CC(Cl)C(=O)NC1CC(C)N(c2ccccc2)C1=O (stereo not drawn) [5-B19, 2-chloro-N-(5-methyl-2-oxo-1-phenylpyrrolidin-3-yl)propanamide]
  viability at 48 h, 25 µM: 112%

## Cc1c(NC(=O)C(C)Cl)c(=O)n(-c2ccccc2)n1C (stereo not drawn) [6-E06, 2-chloro-N-(1,5-dimethyl-3-oxo-2-phenyl-2,3-dihydro-1H-pyrazol-4-yl)propanamide]
  viability at 48 h, 25 µM: 109%

## O=C(CCl)NC1CCCc2nc(-c3ccccc3)sc21 (stereo not drawn) [7-B04, 2-chloro-N-(2-phenyl-4,5,6,7-tetrahydro-1,3-benzothiazol-7-yl)acetamide]
  viability at 48 h, 25 µM: 0.382%

## N#CC(=CNc1ccc(F)cc1)C(=O)NCc1ccccc1 [8-E20, N-benzyl-2-cyano-3-[(4-fluorophenyl)amino]prop-2-enamide]
  viability at 48 h, 25 µM: 98.3%

## CC1=C(C#N)C(=O)N(C)C(=O)C1=Cc1ccc(-c2ccccc2Cl)o1 [9-K18, 5-{[5-(2-chlorophenyl)furan-2-yl]methylidene}-1,4-dimethyl-2,6-dioxo-1,2,5,6-tetrahydropyridine-3-carbonitrile]
  viability at 48 h, 25 µM: 126%

## CCOc1ccccc1NC(=O)C(C)Cl (stereo not drawn) [6-M10, 2-chloro-N-(2-ethoxyphenyl)propanamide]
  viability at 48 h, 25 µM: 93.2%

## CC(C)NC(=O)C(C#N)=Cc1ccc(C#N)cc1 [9-M11, 2-cyano-3-(4-cyanophenyl)-N-(propan-2-yl)prop-2-enamide]
  viability at 48 h, 25 µM: 123%

## N#CC(=Cc1ccc(OC(F)F)c(Cl)c1)C(N)=O [9-L12, 3-[3-chloro-4-(difluoromethoxy)phenyl]-2-cyanoprop-2-enamide]
  viability at 48 h, 25 µM: 106%

## CC(C)N(C)S(=O)(=O)c1ccc(NC(=O)CCl)cc1 [4-K13, 2-chloro-N-{4-[methyl(propan-2-yl)sulfamoyl]phenyl}acetamide]
  viability at 48 h, 25 µM: 1.64%

## C=CC(=O)NC(Cn1cnc2ccccc21)c1ccc(F)cc1 (stereo not drawn) [2-C11, N-[2-(1H-1,3-benzodiazol-1-yl)-1-(4-fluorophenyl)ethyl]prop-2-enamide]
  viability at 48 h, 25 µM: 90.5%

## C=CC(=O)N1CCC(C(=O)N2CCCC2COC)CC1 (stereo not drawn) [2-E12, 1-{4-[2-(methoxymethyl)pyrrolidine-1-carbonyl]piperidin-1-yl}prop-2-en-1-one]
  viability at 48 h, 25 µM: 116%

## Cc1ccc(N2CCCC2CNC(=O)CCl)cc1 (stereo not drawn) [7-H14, 2-chloro-N-{[1-(4-methylphenyl)pyrrolidin-2-yl]methyl}acetamide]
  viability at 48 h, 25 µM: 4.76%

## Cc1nn(C)c(C)c1C(NC(=O)CCl)C(F)(F)F (stereo not drawn) [5-M18, 2-chloro-N-[2,2,2-trifluoro-1-(1,3,5-trimethyl-1H-pyrazol-4-yl)ethyl]acetamide]
  viability at 48 h, 25 µM: 1.44%
